One assay deals with HER1 (ErbB1) (Homo sapiens, UniProt P00533). Briefly: in vitro enzyme activity, HER1 (ErbB1). It is filed as biochemical. The following applies: human ErbB1, [γ-33P]ATP, poly(Glu, Tyr) substrate. The method, then: The purpose of this assay is to detect the in vitro inhibitory activity of compounds on HER1 (ErbB1), HER2 (ErbB2), and HER4 (ErbB4). The enzymes used in this assay are human ErbB1, ErbB2 and ErbB4. Eurofins Pharma Discovery Service provided the method for activity detection.
HER1 (ErbB1), sequence (P00533 25-1210): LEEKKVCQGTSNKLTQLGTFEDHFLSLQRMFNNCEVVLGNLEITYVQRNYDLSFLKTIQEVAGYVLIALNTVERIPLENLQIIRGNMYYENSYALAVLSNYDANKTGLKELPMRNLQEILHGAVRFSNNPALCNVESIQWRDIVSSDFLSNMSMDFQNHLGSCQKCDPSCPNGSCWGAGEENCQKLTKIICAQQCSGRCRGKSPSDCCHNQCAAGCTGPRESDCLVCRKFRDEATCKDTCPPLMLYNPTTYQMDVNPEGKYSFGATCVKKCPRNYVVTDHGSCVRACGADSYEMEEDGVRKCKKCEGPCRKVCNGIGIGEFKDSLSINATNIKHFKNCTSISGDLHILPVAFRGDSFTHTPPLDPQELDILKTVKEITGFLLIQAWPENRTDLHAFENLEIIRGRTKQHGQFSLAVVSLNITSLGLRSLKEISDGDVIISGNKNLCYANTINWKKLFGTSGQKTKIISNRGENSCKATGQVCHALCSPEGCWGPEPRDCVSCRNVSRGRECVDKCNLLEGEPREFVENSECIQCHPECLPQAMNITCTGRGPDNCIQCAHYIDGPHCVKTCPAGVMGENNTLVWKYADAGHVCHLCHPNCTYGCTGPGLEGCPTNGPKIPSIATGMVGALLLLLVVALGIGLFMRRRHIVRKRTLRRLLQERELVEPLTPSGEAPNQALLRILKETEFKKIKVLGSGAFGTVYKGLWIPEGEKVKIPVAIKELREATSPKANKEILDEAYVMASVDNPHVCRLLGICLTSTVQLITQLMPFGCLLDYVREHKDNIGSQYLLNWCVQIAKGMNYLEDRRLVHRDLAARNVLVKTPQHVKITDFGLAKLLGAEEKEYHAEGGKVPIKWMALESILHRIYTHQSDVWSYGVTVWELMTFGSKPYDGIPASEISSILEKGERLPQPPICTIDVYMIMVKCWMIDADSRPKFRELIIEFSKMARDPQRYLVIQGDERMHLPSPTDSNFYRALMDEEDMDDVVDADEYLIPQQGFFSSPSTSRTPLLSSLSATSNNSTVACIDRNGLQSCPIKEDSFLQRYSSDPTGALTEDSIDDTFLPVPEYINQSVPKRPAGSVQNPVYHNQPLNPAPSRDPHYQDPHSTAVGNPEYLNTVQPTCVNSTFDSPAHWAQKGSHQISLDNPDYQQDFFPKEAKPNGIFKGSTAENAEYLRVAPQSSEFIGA
Steps and Method of the Assay (96-Well Plate):
A buffer solution of the test compounds in a dilution of 5-fold (5 μL), polypeptide substrate poly(Glu, Tyr) (4:1) (2.5 μL), ErbB (4-20 ng, 2.5 μL), MnCl2 (50 mM, 1.25 μL), dH2O (3.75 μL), and [γ-^33P]ATP (10 μL) were added, and incubated at 30° C. for 10 minutes. The reaction was terminated by adding 3% phosphoric acid. 10 μL of the sample was taken and transferred to Filtermate A. The filter disc was washed 3 times with 75 mM phosphoric acid and once with methanol. The filter disc was transferred to a sealed plastic bag and the scintillation mixture (4 mL) was added. The intensity of the emitted photon was detected by a scintillation luminescence counter. The CPM (times/min) of the enzyme sample was compared with the CPM of the internal control sample. The level of photon intensity reflected the degree of the tyrosine kinase activity.

The next assay deals with OE19 cells. Briefly: CTG assay of OE19 cells. The following applies: Homo sapiens, 72 hours of cell culture, Cell Titer Glo. The class given is cell-based. Here is the method:
OE19 cells with saturation of 80%-90% were digested with trypsin, centrifuged, resuspended and counted. The concentration of cells was adjusted to […]. OE19 cells were added to a 96-well cell culture plate to 8000 OE19 cells per well. The cells were cultured in a cell incubator containing 5% CO2 at 37° C. overnight.
The stock solution of the test compounds was serially 3-fold diluted with DMSO to a total of 10 concentrations. Before the start of the assay, the serially diluted test compounds were further diluted to 10× compound solutions (the compound with a highest concentration contains 1% DMSO) with cell culture medium under sterile conditions. The prepared 10× compound solutions were added to the cell culture plate, and the 10 μL compound solution was added to each well. In this way, the final concentrations of staurosporine as the standard control and all the test compounds were obtained starting from […] as the initial concentration in a 3-fold serial dilution to get 10 test concentrations.
After 72 hours of cell culture, the 96-well cell culture plate was taken out. Cell Titer Glo reagent was added at […], mixed, centrifuged, and incubated at room temperature in the dark for 10 minutes. The cell plate was placed in Envision for reading.
The inhibition rate was calculated according to original data as follows:
Inhibition %=(ZPE−sample detection value)/(ZPE−HPE)×100%
The well containing 10 mM staurosporine on DAY3 (the first day of the assay is the day when compounds were added, and DAY3 is the day when reading is perfomed) was used as the HPE (100% inhibition control) well, and the well containing 0.1% DMSO on DAY3 was used as the ZPE (0% inhibition control) well. Each concentration of test compounds was tested in duplicate.
Non-linear regression analysis was performed using the processed data and GraphPad Prism 6 analysis software to obtain a dose-response curve, and the half-inhibitory concentration (IC50) of the test compounds on OE19 cells was calculated.

The next assay concerns the target T1, CYP3A4 (Homo sapiens, UniProt P08684).
T1 construct: in the assay of CYP enzyme activity in human liver microsome; from tissue; host or cells: human liver microsome
Kind of assay: inhibition of CYP enzyme activity in human liver microsome, CYP3A4. The class given is in vitro ADME. The source says: (§1) The results of the compounds disclosed herein and the reference compound Poziotinib in the assay of CYP enzyme activity in human liver microsome were shown in the following table (Table 8).
For orientation: Liver microsomes are vesicles of endoplasmic reticulum, rich in cytochrome P450 enzymes.

For a further assay, the target named is T2, CYP1A2 (Homo sapiens, UniProt P05177).
T2 construct: in the assay of CYP enzyme activity in human liver microsome; from tissue; host or cells: human liver microsome
T2 sequence (P05177 1-516): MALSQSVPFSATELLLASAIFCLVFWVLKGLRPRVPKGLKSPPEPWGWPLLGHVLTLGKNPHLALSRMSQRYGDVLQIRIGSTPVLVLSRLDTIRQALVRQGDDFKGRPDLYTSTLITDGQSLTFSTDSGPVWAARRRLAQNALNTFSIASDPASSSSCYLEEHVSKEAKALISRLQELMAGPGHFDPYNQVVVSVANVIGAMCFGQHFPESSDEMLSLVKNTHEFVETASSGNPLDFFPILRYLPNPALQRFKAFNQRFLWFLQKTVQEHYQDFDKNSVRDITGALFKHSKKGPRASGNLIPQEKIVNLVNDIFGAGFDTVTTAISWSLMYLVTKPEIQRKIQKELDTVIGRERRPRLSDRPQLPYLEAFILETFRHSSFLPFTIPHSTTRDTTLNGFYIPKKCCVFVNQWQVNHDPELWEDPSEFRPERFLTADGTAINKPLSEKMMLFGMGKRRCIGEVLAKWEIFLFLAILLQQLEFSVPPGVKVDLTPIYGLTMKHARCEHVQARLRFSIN
Kind of assay: inhibition of CYP enzyme activity in human liver microsome, CYP1A2. The class given is in vitro ADME.
Text: as §1

Each structure is given as a SMILES string. Like-named read-outs stand apart in the source and are kept apart here.

T1 sequence (P08684 whole entry): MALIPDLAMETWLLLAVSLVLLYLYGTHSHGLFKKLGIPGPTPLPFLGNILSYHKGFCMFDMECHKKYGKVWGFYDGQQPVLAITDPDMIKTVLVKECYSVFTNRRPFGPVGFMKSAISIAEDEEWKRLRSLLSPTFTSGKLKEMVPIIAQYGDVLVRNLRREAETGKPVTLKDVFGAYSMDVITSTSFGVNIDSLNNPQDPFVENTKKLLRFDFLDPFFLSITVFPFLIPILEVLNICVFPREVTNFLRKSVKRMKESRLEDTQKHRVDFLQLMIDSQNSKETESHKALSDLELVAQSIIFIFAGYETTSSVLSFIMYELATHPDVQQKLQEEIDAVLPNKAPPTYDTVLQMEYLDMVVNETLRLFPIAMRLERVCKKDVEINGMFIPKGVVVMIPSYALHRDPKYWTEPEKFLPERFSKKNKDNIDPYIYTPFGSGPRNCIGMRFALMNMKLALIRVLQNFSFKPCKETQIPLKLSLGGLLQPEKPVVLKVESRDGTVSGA

In the case of `C=CC(=O)N1[C@@H]2CC[C@H]1C[C@H](Oc1cc3c(Nc4ccc(Cl)c(Cl)c4F)ncnc3cc1OC)C2` [Example 8], the IC50 against HER1 (ErbB1) worked out at 6 nM; in the assay with OE19 cells, 0.48 nM.
`C=CC(=O)N1[C@@H]2CC[C@H]1C[C@H](Nc1cc3c(Nc4ccc(Cl)c(Cl)c4F)ncnc3cc1OC)C2` [Example 38]: the IC50 on CYP3A4 is above 50000 nM; on HER1 (ErbB1), 8 nM; on CYP1A2, above 50000 nM; in the assay with OE19 cells, 1.2 nM. Further, the “inhibition of CYP enzyme CYP3A4” value against CYP3A4 was “no inhibitory activity”. Further, the “inhibition of CYP enzyme CYP1A2” value against CYP1A2 (microsomes) is on record as “no inhibitory activity”.
For the compound `C=CC(=O)N1CCC(Oc2cc3c(Nc4ccc(Cl)c(Cl)c4F)ncnc3cc2OC)CC1` [Poziotinib, reference compound], the IC50 at CYP3A4 is above 50000 nM; on CYP1A2 (human liver microsome, read-out: inhibition of CYP enzyme CYP1A2), above 50000 nM. The “inhibition of CYP enzyme CYP3A4” value on CYP3A4 was “no inhibitory activity”. Besides, the “inhibition of CYP enzyme CYP1A2” value on CYP1A2 (human liver microsome) was “no inhibitory activity”.

The values above are taken from US20210078958A1, “QUINAZOLINE DERIVATIVE AND USE THEREOF” (MEDSHINE DISCOVERY INC., priority 2017, published 2021).
